Laboratory results taken from US12492188B2, “1H-benzo[D]imidazole derivatives as TLR9 inhibitors for the treatment of fibrosis” (BRISTOL-MYERS SQUIBB COMPANY, priority 2020, dated 2025).
Where two headings read alike, the source gives them in different places.

Key:
Type in all cases: cell-based
human TLR9 = biological target: T1, human TLR9 (Homo sapiens, UniProt Q9NR96); test: TLR9 inhibition reporter assay (HEK-Blue cells, secreted embryonic alkaline phosphatase reporter); conditions: HEK-Blue cells overexpressing human TLR9, stimulated with ODN2006 5 nM
T1 construct: host or cells: HEK-Blue cells (HEK293-derived reporter line)
T1 sequence (Q9NR96 26-1032): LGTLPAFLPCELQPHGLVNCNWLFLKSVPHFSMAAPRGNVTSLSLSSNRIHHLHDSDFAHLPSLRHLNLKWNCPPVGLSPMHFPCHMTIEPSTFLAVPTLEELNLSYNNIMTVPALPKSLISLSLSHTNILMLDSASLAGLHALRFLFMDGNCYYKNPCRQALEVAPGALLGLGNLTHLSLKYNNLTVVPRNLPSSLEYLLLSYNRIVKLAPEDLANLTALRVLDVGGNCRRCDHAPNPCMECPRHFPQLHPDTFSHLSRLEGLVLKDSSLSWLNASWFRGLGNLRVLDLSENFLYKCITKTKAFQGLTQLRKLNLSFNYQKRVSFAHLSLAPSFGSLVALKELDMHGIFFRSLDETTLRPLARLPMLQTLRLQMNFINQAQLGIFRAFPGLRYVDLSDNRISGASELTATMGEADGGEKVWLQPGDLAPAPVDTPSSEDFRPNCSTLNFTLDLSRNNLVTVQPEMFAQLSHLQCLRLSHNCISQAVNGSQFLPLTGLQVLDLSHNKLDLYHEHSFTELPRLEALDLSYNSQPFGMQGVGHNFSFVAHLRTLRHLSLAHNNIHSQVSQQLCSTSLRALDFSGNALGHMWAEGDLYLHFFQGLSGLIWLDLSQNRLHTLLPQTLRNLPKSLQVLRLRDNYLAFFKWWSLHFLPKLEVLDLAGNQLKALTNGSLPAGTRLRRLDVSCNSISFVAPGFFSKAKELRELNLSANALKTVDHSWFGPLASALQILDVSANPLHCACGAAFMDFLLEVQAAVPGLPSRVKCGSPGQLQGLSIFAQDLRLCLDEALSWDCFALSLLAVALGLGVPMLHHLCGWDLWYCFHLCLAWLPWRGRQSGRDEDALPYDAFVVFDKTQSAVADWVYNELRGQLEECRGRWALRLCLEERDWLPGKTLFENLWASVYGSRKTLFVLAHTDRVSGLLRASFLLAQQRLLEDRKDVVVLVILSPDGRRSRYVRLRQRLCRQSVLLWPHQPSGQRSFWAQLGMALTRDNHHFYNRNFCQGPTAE
Outline: (§1)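 HEK-Blue cells expressing human TLR7, TLR8 or TLR9 with an NF-κB/AP-1-driven SEAP reporter were pretreated with compound (0.05 nM–50 μM final) for 30 min at room temperature. Agonists were gardiquimod 7.5 μM for TLR7, R848 15.9 μM for TLR8 and ODN2006 5 nM for TLR9. SEAP was read after 22 h at 37 °C, and inhibition was calculated relative to agonist-plus-DMSO and known-inhibitor controls.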

human TLR7 = biological target: T2, human TLR7 (Homo sapiens, UniProt Q9NYK1); test: TLR7 inhibition reporter assay (HEK-Blue cells, secreted embryonic alkaline phosphatase reporter); conditions: HEK-Blue cells overexpressing human TLR7, stimulated with gardiquimod 7.5 μM; read-out: TLR 7 IC50
T2 construct: host or cells: HEK-Blue cells (HEK293-derived reporter line)
T2 sequence (Q9NYK1 27-1049): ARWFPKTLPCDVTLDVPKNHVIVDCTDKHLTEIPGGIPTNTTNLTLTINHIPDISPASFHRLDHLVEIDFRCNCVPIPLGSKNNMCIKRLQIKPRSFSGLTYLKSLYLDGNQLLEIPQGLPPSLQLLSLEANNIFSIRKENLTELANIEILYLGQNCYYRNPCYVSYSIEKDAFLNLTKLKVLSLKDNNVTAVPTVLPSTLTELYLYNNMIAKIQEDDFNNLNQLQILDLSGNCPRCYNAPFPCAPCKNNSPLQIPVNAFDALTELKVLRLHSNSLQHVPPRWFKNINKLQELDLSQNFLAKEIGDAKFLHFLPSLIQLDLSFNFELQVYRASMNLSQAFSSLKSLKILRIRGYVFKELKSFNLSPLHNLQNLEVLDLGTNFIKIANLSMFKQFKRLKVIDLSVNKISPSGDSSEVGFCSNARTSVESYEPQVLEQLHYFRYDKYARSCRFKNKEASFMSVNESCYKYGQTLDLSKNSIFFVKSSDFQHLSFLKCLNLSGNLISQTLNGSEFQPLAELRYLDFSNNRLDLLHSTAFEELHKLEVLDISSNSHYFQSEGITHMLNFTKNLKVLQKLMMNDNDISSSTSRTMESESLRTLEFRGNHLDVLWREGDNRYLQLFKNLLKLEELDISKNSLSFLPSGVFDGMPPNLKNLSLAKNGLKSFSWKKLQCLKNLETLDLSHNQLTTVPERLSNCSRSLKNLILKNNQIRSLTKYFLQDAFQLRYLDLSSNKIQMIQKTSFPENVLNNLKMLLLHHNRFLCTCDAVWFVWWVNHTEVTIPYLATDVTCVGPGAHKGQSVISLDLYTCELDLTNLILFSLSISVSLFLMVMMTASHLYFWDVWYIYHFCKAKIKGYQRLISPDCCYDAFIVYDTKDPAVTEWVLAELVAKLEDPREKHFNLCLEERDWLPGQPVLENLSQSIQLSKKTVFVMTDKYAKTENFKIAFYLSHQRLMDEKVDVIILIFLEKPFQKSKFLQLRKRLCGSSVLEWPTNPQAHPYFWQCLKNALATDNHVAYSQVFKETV
Outline: as §1

human TLR8 = biological target: T3, human TLR8 (Homo sapiens, UniProt Q9NR97); test: TLR8 inhibition reporter assay (HEK-Blue cells, secreted embryonic alkaline phosphatase reporter); conditions: HEK-Blue cells overexpressing human TLR8, stimulated with R848 15.9 μM; read-out: TLR 8 IC50
T3 construct: host or cells: HEK-Blue cells (HEK293-derived reporter line)
T3 sequence (Q9NR97 27-1041): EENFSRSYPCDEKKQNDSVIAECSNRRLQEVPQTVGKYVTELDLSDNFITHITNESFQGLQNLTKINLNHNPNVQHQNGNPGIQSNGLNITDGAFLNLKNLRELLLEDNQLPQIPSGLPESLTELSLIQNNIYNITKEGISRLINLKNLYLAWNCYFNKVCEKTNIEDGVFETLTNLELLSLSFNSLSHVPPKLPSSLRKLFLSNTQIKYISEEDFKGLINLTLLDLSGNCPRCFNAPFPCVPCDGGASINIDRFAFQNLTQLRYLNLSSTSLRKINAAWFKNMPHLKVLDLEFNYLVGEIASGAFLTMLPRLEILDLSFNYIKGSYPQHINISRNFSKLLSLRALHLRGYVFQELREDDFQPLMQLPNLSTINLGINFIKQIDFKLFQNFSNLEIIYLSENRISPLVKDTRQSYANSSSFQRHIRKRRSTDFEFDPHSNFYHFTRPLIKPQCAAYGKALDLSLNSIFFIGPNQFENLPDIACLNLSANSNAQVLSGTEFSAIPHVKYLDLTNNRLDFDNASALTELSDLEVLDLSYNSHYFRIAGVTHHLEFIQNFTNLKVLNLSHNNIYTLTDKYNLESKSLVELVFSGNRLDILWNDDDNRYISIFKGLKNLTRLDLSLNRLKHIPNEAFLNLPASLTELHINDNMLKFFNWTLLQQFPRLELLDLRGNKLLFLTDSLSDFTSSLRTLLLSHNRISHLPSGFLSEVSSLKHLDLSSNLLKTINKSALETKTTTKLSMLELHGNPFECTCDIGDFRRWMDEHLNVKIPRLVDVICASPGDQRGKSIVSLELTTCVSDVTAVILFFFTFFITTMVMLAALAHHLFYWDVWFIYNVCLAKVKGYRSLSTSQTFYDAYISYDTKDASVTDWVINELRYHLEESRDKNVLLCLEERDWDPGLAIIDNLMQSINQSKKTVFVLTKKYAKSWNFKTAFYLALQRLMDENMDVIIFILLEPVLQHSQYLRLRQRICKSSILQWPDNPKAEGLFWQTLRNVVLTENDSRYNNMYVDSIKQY
Outline: as §1

[1] = 22 hour incubation, reporter readout

Row | Structure (SMILES) | IC50 (human TLR9; [1]) [nM] | IC50 (human TLR7) [nM] | IC50 (human TLR8) [nM] | IC50 (human TLR9; read-out: TLR 9 IC50) [nM]
1 | Cc1cc(-c2ccc(C3CCN(C4CCOCC4)CC3)cc2)cc2c1nc(-c1ccc(S(C)(=O)=O)cc1)n2C [Example 364, 1,4-dimethyl-2-(4-(methylsulfonyl)phenyl)-6-(4-(1-(tetrahydro-2H-pyran-4-yl)piperidin-4-yl)phenyl)-1H-benzo[d]imidazole] | 310 | > 50000 | > 50000 | 
2 | Cc1cc(-c2ccc(C3CCN(C(C)C)CC3)nc2)cc2c1nc(-c1ccc(S(C)(=O)=O)cc1)n2C [Example 365, 6-(6-(1-isopropylpiperidin-4-yl)pyridin-3-yl)-1,4-dimethyl-2-(4-(methylsulfonyl)phenyl)-1H-benzo[d]imidazole] | 300 | 2100 | 14200 | 
3 | Cc1cc(-c2ccc(N3CCC(N4CCCC4)CC3)cc2)cc2c1nc(-c1ccc(S(C)(=O)=O)cc1)n2C [Example 367, 1,4-dimethyl-2-(4-(methylsulfonyl)phenyl)-6-(4-(4-(pyrrolidin-1-yl)piperidin-1-yl)phenyl)-1H-benzo[d]imidazole] | 510 | 2300 | 1900 | 508
4 | Cc1cc(-c2ccc(N3CCC(N(C)C)CC3)cc2)cc2c1nc(-c1ccc(S(C)(=O)=O)cc1)n2C [Example 368, 1-(4-(1,4-dimethyl-2-(4-(methylsulfonyl)phenyl)-1H-benzo[d]imidazol-6-yl)phenyl)-N,N-dimethylpiperidin-4-amine] | 410 | 1400 | 1700 | 414
5 | Cc1cc(-c2ccc(CN3CC4(CN(C)C4)C3)cc2)cc2c1nc(-c1ccc(S(C)(=O)=O)cc1)n2C [Example 370, 1,4-dimethyl-6-(4-((6-methyl-2,6-diazaspiro[3.3]heptan-2-yl)methyl)phenyl)-2-(4-(methylsulfonyl)phenyl)-1H-benzo[d]imidazole] | 56 | 1800 | 4500 | 
6 | Cc1cc(-c2ccc(CN3CC4(C3)CN(CC(C)C)C4)cc2)cc2c1nc(-c1ccc(S(C)(=O)=O)cc1)n2C [Example 371, 6-(4-((6-isobutyl-2,6-diazaspiro[3.3]heptan-2-yl)methyl)phenyl)-1,4-dimethyl-2-(4-(methylsulfonyl)phenyl)-1H-benzo[d]imidazole] | 55 | 1800 | 6800 | 
7 | Cc1cc(-c2ccc(CN3CCC(N4CCCC4)CC3)cc2)cc2c1nc(-c1ccc(S(C)(=O)=O)cc1)n2C1CC1 [Example 372, 1-cyclopropyl-4-methyl-2-(4-(methylsulfonyl)phenyl)-6-(4-((4-(pyrrolidin-1-yl)piperidin-1-yl)methyl)phenyl)-1H-benzo[d]imidazole] | 54 | 1400 | 5100 | 
8 | CN(C)C1CCN(Cc2ccc(-c3ccc4nc(-c5ccccc5)n(C)c4c3)cc2)CC1 [Example 374, N,N-dimethyl-1-(4-(1-methyl-2-phenyl-1H-benzo[d]imidazol-6-yl)benzyl)piperidin-4-amine] | 280 | 800 | > 50000 | 279
9 | CN(C)C1CCN(Cc2ccc(-c3ccc4nc(-c5ccc(S(C)(=O)=O)cc5)n(C)c4c3)cc2)CC1 [Example 375, N,N-dimethyl-1-(4-(1-methyl-2-(4-(methylsulfonyl)phenyl)-1H-benzo[d]imidazol-6-yl)benzyl)piperidin-4-amine] | 200 | 1300 | 400 | 203
10 | COc1ccc(-c2nc3ccc(-c4ccc(CN5CCC(N(C)C)CC5)cc4)cc3n2C)cc1 [Example 376, 1-(4-(2-(4-methoxyphenyl)-1-methyl-1H-benzo[d]imidazol-6-yl)benzyl)-N,N-dimethylpiperidin-4-amine] | 210 | 800 | 1400 | 206
11 | CN(C)C1CCN(Cc2ccc(-c3ccc4nc(-c5cccc(F)c5)n(C)c4c3)cc2)CC1 [Example 377, 1-(4-(2-(3-fluorophenyl)-1-methyl-1H-benzo[d]imidazol-6-yl)benzyl)-N,N-dimethylpiperidin-4-amine] | 350 | 1300 | 19600 | 346
12 | CN(C)C1CCN(Cc2ccc(-c3ccc4nc(-c5ccc(F)cc5)n(C)c4c3)cc2)CC1 [Example 378, 1-(4-(2-(4-fluorophenyl)-1-methyl-1H-benzo[d]imidazol-6-yl)benzyl)-N,N-dimethylpiperidin-4-amine] | 350 | 2200 | 17100 | 349
13 | CN(C)C1CCN(Cc2ccc(-c3ccc4nc(-c5ccccc5S(C)(=O)=O)n(C)c4c3)cc2)CC1 [Example 379, N,N-dimethyl-1-(4-(1-methyl-2-(2-(methylsulfonyl)phenyl)-1H-benzo[d]imidazol-6-yl)benzyl)piperidin-4-amine] | 98 | 1000 | 18800 | 98
